From patent publication US20040157930A1, “Histone deacetylase enzyme-inhibiting derivatives of hydroxamic acid as new cytokine synthesis-inhibiting anti-inflammatory drugs” (priority 2001, published 2004)

Tested on: IFNγ
Assay: IFNγ synthesis by PBMCs stimulated with IL-12 and IL-18 (ELISA)
Assay type: cell-based
Details: Homo sapiens; PBMC, IL-12 10 ng/ml + IL-18 20 ng/ml, 48 h; read-out: IFNγ (from IL-12 + IL-18) IC50
Description: Cytokine IFNγ is produced by the T lymphocytes following their stimulation by pro-inflammatory cytokines, especially IL-12 and IL-18 (Dinarello C. A. and Moldawer L. L. Proinflammatory and anti-inflammatory cytokines in rheumatoid arthritis. A primer for clinicians. 2nd Edition, Amgen Inc., 2000).
At the end, the cells were stimulated for 48 hours in the presence of the compound by simultaneous addition of recombinant IL-12 (10 ng/ml) and recombinant IL-18 (20 ng/ml). The quantity of IFNγ produced was determined with a commercial ELISA assay.

IC50: 0.74 µM
Structure (SMILES): O=C(CCCCCCC(=O)Nc1ccccc1)NO [SAHA, suberoylanilide hydroxamic acid]
